Here are results for 48 compounds from publication PMC8041284, “Tunable Methacrylamides for Covalent Ligand Directed Release Chemistry” (Journal of the American Chemical Society, 2021).

Where two headings read alike, the source gives them in different places.

The assay deals with BTK (Homo sapiens, UniProt Q06187). Kind of assay: biochemical.
Setting [1] is: read-out: BTK inhibition (%), 0.75 uM BTK, […] probe 3l, 15 min preincubation.

Chain of BTK (Q06187 402-655 limits assumed): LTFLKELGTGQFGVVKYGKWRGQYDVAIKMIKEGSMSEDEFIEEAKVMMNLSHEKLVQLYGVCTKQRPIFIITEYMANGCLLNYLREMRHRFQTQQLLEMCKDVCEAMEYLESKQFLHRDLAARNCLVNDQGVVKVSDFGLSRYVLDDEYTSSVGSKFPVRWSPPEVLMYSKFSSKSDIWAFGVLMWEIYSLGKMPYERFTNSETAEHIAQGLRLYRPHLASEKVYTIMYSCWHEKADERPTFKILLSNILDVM

What is called inhibition is the change of the read-out against control, counted positive when it falls. Turning to `O=c1cc(-c2ccc(O)cc2)oc2c([C@@H]3OC[C@H](O)[C@H](O)[C@H]3O)c(O)c([C@@H]3O[C@H](CO)[C@@H](O)[C@H](O)[C@H]3O)c(O)c12` [PCM-0216486], the inhibition at 10 µM under setting [1] is -13.9%.

In the case of `COc1ccc([C@@H]2CC(=O)c3c(O)cc(O[C@@H]4O[C@H](CO[C@@H]5O[C@@H](C)[C@H](O)[C@@H](O)[C@H]5O)[C@@H](O)[C@H](O)[C@H]4O)cc3O2)cc1` [PCM-0216487], the inhibition at 10 µM under setting [1] is -3.1%. In the case of `C=C(C)[C@@H]1CC[C@@]2(C)CCC(=O)C(C)=C2C1` [PCM-0216488], the inhibition at 10 µM under setting [1] is -11.6%. Still for that read-out and setting: the figure for `COc1ccc2cc3[n+](cc2c1O)CCc1cc2c(cc1-3)OCO2` [PCM-0216489] is 97.3%. On to `CC1(C)CC[C@]2(C(=O)O)CCC3=C(CC[C@@H]4[C@@]5(C)C[C@H](O)[C@H](O)[C@@](C)(C(=O)O)[C@@H]5CC[C@@]34C)[C@@H]2C1` [PCM-0216490], for which, under setting [1], the inhibition at 10 µM is 10.8%. On to `C=C[C@H]1CN2CC[C@@]3(C(=O)Nc4ccccc43)[C@@H]2C[C@@H]1/C(=C\OC)C(=O)OC` [PCM-0216491], for which, under setting [1], the inhibition at 10 µM was -7.7%. As for `COc1cc2c(=O)c3c(O)c([C@@H]4O[C@H](CO[C@@H]5OC[C@](O)(CO)[C@H]5O)[C@@H](O)[C@H](O)[C@H]4O)c(O)cc3oc2cc1O` [PCM-0216492], the inhibition at 10 µM under setting [1] was -13.1%. Consider `C[C@@H]1O[C@@H](OC[C@H]2O[C@@H](Oc3cc(O)c4c(c3)O[C@H](c3ccc(O)cc3)CC4=O)[C@H](O)[C@@H](O)[C@@H]2O)[C@H](O)[C@H](O)[C@H]1O` [PCM-0216493], for which the inhibition at 10 µM under setting [1] amounted to 10.8%. Still for that read-out and setting: under `OCC1(O)COc2cc(O)ccc2-c2cc(O)c(O)cc2C1` (stereo not drawn) [PCM-0216494] stands 39.4%. For the compound `O=C(/C=C/c1ccc(O)cc1)OC[C@H]1O[C@@H](Oc2c(-c3ccc(O)cc3)oc3cc(O)cc(O)c3c2=O)[C@H](O)[C@@H](O)[C@@H]1O` [PCM-0216495], the inhibition at 10 µM under setting [1] came out at 15.3%.

In the case of `COc1ccc(C[C@@H]2c3cc(Oc4cc(C[C@@H]5c6cc(O)c(OC)cc6CCN5C)ccc4O)c(OC)cc3CCN2C)cc1` [PCM-0216496], the inhibition at 10 µM under setting [1] was 16.2%.

For `O=c1cc(-c2ccc(O)c(O)c2)oc2cc(O)c([C@@H]3O[C@H](CO)[C@@H](O)[C@H](O)[C@H]3O)c(O)c12` [PCM-0216497], under setting [1], the inhibition at 10 µM is -4.6%. `COc1cc(C2Oc3ccc([C@H]4Oc5cc(O)cc(O)c5C(=O)[C@@H]4O)cc3OC2CO)ccc1O` (stereo partly drawn) [PCM-0216498]: the inhibition at 10 µM under setting [1] is 21.6%.

`CC1(C)O[C@H]1COc1c2ccoc2cc2oc(=O)ccc12` [PCM-0216499]: under setting [1], the inhibition at 10 µM was determined as 0.8%. `COc1cc2c(cc1OC)[C@H]1[C@@H](C)c3ccc(OC)c(OC)c3CN1CC2` [PCM-0216500]: the inhibition at 10 µM under setting [1] is -27%.

Take `COc1ccc2[nH]c(=O)oc2c1` [PCM-0216501]: the inhibition at 10 µM under setting [1] was -4.6%. As for `COc1cc2oc(=O)ccc2cc1O` [PCM-0216502], the inhibition at 10 µM under setting [1] is -10%. Turning to `CC(=O)O[C@H](CC=C(C)C)C1=CC(=O)c2c(O)ccc(O)c2C1=O` [PCM-0216503], the inhibition at 10 µM under setting [1] was found to be 35.7%. As for `O=C(/C=C/c1ccc(O)c2c1[C@H](C(=O)O)[C@@H](c1ccc(O)c(O)c1)O2)O[C@H](Cc1ccc(O)c(O)c1)C(=O)O` [PCM-0216504], under setting [1], the inhibition at 10 µM was found to be 8.5%. As for `CC(C)(O[C@@H]1O[C@H](CO)[C@@H](O)[C@H](O)[C@H]1O)[C@H]1Cc2cc3ccc(=O)oc3cc2O1` [PCM-0216505], under setting [1], the inhibition at 10 µM was -1.5%. For `CCCCC1OC(=O)c2ccccc21` (stereo not drawn) [PCM-0216506], under setting [1], the inhibition at 10 µM was found to be 6.9%. For `CC(C)=CC(=O)O[C@H]1Cc2cc3ccc(=O)oc3cc2OC1(C)C` [PCM-0216507], under setting [1], the inhibition at 10 µM came to 16.2%. On to `CC(=O)O[C@H]1C(=O)[C@]2(C)[C@H](O)C[C@H]3OC[C@@]3(OC(C)=O)[C@H]2[C@H](OC(=O)c2ccccc2)[C@]2(O)C[C@H](OC(=O)[C@H](O)[C@@H](NC(=O)c3ccccc3)c3ccccc3)C(C)=C1C2(C)C` [PCM-0216508], for which the inhibition at 10 µM under setting [1] is 16.2%.

On to `CC(C)=CCC[C@](C)(O[C@@H]1O[C@H](CO[C@@H]2O[C@@H](CO)[C@H](O)[C@H]2O)[C@@H](O)[C@H](O)[C@H]1O)[C@H]1CC[C@]2(C)[C@@H]1[C@H](O)C[C@@H]1[C@@]3(C)CC[C@H](O[C@@H]4O[C@H](CO)[C@@H](O)[C@H](O)[C@H]4O[C@@H]4O[C@H](CO)[C@@H](O)[C@H](O)[C@H]4O)C(C)(C)[C@@H]3CC[C@]12C` [PCM-0216509], for which the inhibition at 10 µM under setting [1] was -10%. For `COc1ccc(-c2oc3c(CC=C(C)C)c(O[C@@H]4C[C@H](CO)[C@@H](O)[C@H](O)[C@H]4O)cc(O)c3c(=O)c2O[C@@H]2O[C@@H](C)[C@H](O)[C@@H](O)[C@H]2O[C@@H]2O[C@H](CO)[C@@H](O)[C@H](O)[C@H]2O)cc1` [PCM-0216510], the inhibition at 10 µM under setting [1] is -15.4%. As to `COc1ccc(-c2oc3c(CC=C(C)C)c(O[C@@H]4O[C@H](CO)[C@@H](O)[C@H](O)[C@H]4O)cc(O)c3c(=O)c2O[C@@H]2O[C@@H](C)[C@H](O)[C@@H](O)[C@H]2O[C@@H]2OC[C@@H](O)[C@H](O)[C@H]2O)cc1` [PCM-0216511], the inhibition at 10 µM under setting [1] is -8.5%. For `COc1ccc(-c2oc3c(CC=C(C)C)c(O[C@@H]4O[C@H](CO)[C@@H](O)[C@H](O)[C@H]4O)cc(O)c3c(=O)c2O[C@@H]2O[C@@H](C)[C@H](O)[C@@H](O)[C@H]2O[C@@H]2O[C@@H](C)[C@H](O)[C@@H](O)[C@H]2O)cc1` [PCM-0216512], the inhibition at 10 µM under setting [1] is -13.1%. With `COc1c(C)c(O)cc2[o+]c(-c3ccccc3)ccc12` [PCM-0216513], the inhibition at 10 µM under setting [1] turned out to be 38.6%.

Take `C=C(C)[C@@H]1CC[C@]2(C(=O)O)CC[C@]3(C)[C@H](CC[C@@H]4[C@@]5(C)CC[C@H](O[C@@H]6OC[C@H](O)[C@H](O)[C@H]6O[C@@H]6O[C@@H](C)[C@H](O)[C@@H](O)[C@H]6O)[C@@](C)(CO)[C@@H]5CC[C@]43C)[C@@H]12` [PCM-0216514]: the inhibition at 10 µM under setting [1] worked out at 34%. `C=C[C@@]12CN(C)[C@H]3C[C@]14C(=Nc1ccccc14)[C@@H]1C[C@@H]2[C@@H]3CO1` [PCM-0216515]: the inhibition at 10 µM (read-out: BTK inhibition (%)) is -16.2%. For the compound `C[C@@H](CC[C@@]1(O)O[C@H]2C[C@H]3[C@@H]4CC[C@@H]5C[C@@H](O[C@@H]6O[C@H](CO)[C@H](O)[C@H](O)[C@H]6O[C@@H]6O[C@H](CO)[C@@H](O)[C@H](O)[C@H]6O)CC[C@]5(C)[C@H]4CC[C@]3(C)[C@H]2[C@@H]1C)CO[C@@H]1O[C@H](CO)[C@@H](O)[C@H](O)[C@H]1O` [PCM-0216516], the inhibition at 10 µM under setting [1] was -3.9%. Still for that read-out and setting: under `Nc1[nH]c(=O)nc2c1ncn2[C@@H]1O[C@H](CO)[C@@H](O)[C@H]1O` [PCM-0216517] stands -11.6%; under `C[C@H](C[C@H](O)[C@H]1OC1(C)C)C1=C2C[C@H](O)[C@H]3[C@@]4(C)CCC(=O)C(C)(C)[C@@H]4CC[C@]3(C)[C@@]2(C)CC1` [PCM-0216518], -24.7%.

On to `C[C@H](C[C@H](O)[C@@H](O)C(C)(C)O)C1=C2C[C@H](O)[C@H]3[C@@]4(C)CCC(=O)C(C)(C)[C@@H]4CC[C@]3(C)[C@@]2(C)CC1` [PCM-0216519], for which, under setting [1], the inhibition at 10 µM is -29.3%. Turning to `C=C1CC[C@H]2[C@@H](/C=C(\C)C(=O)[C@@]3(OC(C)=O)C[C@H](C)[C@H](OC(=O)c4ccccc4)[C@@H]3[C@H]1OC(C)=O)C2(C)C` [PCM-0216520], the inhibition at 10 µM (read-out: BTK inhibition (%)) is -20.1%. On to `COc1cc(/C=C/C(=O)CC(=O)/C=C/c2ccc(O)cc2)ccc1O` [PCM-0216521], for which the inhibition at 10 µM under setting [1] is 110%. As to `C[C@@H]1CCCC2=CC(=O)[C@@H]3[C@@H](C3(C)C)[C@]21C` [PCM-0216523], the inhibition at 10 µM under setting [1] is -8.5%. As to `CC(=O)Cc1cc(=O)c2c(C)cc(O)c([C@@H]3O[C@H](CO)[C@@H](O)[C@H](O)[C@H]3O)c2o1` [PCM-0216524], the inhibition at 10 µM under setting [1] is 3.9%. As for `COc1ccc(-c2cc(=O)c3c(O)cc(O[C@@H]4O[C@H](CO[C@@H]5O[C@@H](C)[C@H](O)[C@@H](O)[C@H]5O)[C@@H](O)[C@H](O)[C@H]4O)cc3o2)cc1` [PCM-0216526], the inhibition at 10 µM under setting [1] was determined as 14.7%. Consider `O=C(/C=C/c1ccc(O[C@@H]2O[C@H](CO)[C@@H](O)[C@H](O)[C@H]2O)cc1)c1ccc(O)cc1O` [PCM-0216527], for which, under setting [1], the inhibition at 10 µM stood at 19.3%. As for `COc1cc2c(cc1OC)[C@@H](Cc1ccc(Oc3cc(C[C@@H]4c5cc(OC)c(OC)cc5CCN4C)ccc3O)cc1)N(C)CC2` [PCM-0216529], the inhibition at 10 µM under setting [1] was -9.3%. As to `C[C@@]1(CO)C[C@@H](O)C[C@@]2(C)[C@@H]3CC[C@](C)([C@@H](O)CO)C=C3CC[C@H]12` [PCM-0216530], under setting [1], the inhibition at 10 µM came out at 20.8%.

As to `CC1(C)C=Cc2cc(-c3coc4cc(O)ccc4c3=O)ccc2O1` [PCM-0216531], under setting [1], the inhibition at 10 µM worked out at 28.6%. In the case of `CC(C)=CCC[C@](C)(O[C@@H]1O[C@H](CO)[C@@H](O)[C@H](O)[C@H]1O)[C@H]1CC[C@]2(C)[C@@H]1[C@H](O)C[C@@H]1[C@@]3(C)CC[C@H](O)C(C)(C)[C@@H]3[C@@H](O)C[C@]12C` [PCM-0216532], under setting [1], the inhibition at 10 µM was -11.6%. In the case of `CO[C@]1(CC[C@@H](C)CO[C@@H]2O[C@H](CO)[C@@H](O)[C@H](O)[C@H]2O)O[C@H]2C[C@H]3[C@@H]4CC=C5C[C@@H](O[C@@H]6O[C@H](CO)[C@@H](O[C@@H]7O[C@@H](C)[C@H](O)[C@@H](O)[C@H]7O)[C@H](O)[C@H]6O[C@@H]6O[C@@H](C)[C@H](O)[C@@H](O)[C@H]6O)CC[C@]5(C)[C@H]4CC[C@]3(C)[C@H]2[C@@H]1C` [PCM-0216533], the inhibition at 10 µM under setting [1] was -6.2%. The same measure, in the same setting: under `COC(=O)C1=CO[C@@H](O[C@@H]2O[C@H](CO)[C@@H](O)[C@H](O)[C@H]2O)[C@H]2[C@@H]1C(=O)C[C@@H]2C` [PCM-0216534] stands 6.9%; under `C[C@@H]1CC[C@@]2(OC1)O[C@H]1C[C@H]3[C@@H]4CC=C5C[C@@H](O[C@@H]6O[C@H](CO)[C@@H](O)[C@H](O)[C@H]6O[C@@H]6O[C@@H](C)[C@H](O)[C@@H](O)[C@H]6O)CC[C@]5(C)[C@H]4CC[C@]3(C)[C@@]1(O)[C@@H]2C` [PCM-0216535], 5.4%.

Turning to `C[C@H]1O[C@@H](O[C@H]2CC[C@@]3(C)[C@@H](CC[C@]4(C)[C@@H]3C=CC3=C5CC(C)(C)CC[C@]5(CO)[C@H](O)C[C@]34C)[C@]2(C)CO)[C@H](O)[C@@H](O[C@@H]2O[C@H](CO)[C@@H](O)[C@H](O)[C@H]2O)[C@H]1O` [PCM-0216536], under setting [1], the inhibition at 10 µM came to 5.4%.
